The source of these data is article PMC9332470, “Production and Selection of Antibody–Antigen Pairs for the Development of Immunoenzyme Assay and Lateral Flow Immunoassay Methods for Carbofuran and Its Analogues” (Biosensors, 2022).

In one assay the test system is mAb 7F9. Nature of the assay: ELISA reactivity of hybridoma supernatant, cell line 7F9. Format: binding, BALB/c mice. The following applies: cell line 7F9 supernatant, 50 ng/mL pesticide. The procedure:
(§1) The desired antibodies with the highest affinity were screened by icELISA with carbofuran as a competitive compound, and hybridoma cells were cloned by the limited dilution method. Then, the selected hybridoma cells were injected into mice for ascites production. Finally, the mAbs were purified by (NH4)2SO4 with saturation of 50% and further purified by an SPA column.
(§2) Microplates were coated with coating antigens. Different concentrations of the standard (50 µL) and the mAb (50 µL) were added to each well, and the plates were incubated for 20 min at 37 °C. The plates were washed with PBS (0.01 M, containing 0.05% (v/v) Triton X-100), 100 μL of goat anti-mouse IgG-HRP conjugate solution was added to each well, and the plates were incubated for 20 min at 37 °C. After the plates were washed with PBS (0.01 M, containing 0.05% Triton X-100, v/v), 100 µL of TMB single-component substrate solution was added to each well, followed by incubation at 37 °C for 10 min. Finally, the reaction was terminated, and the absorbance at 450 nm was measured by a microplate reader.
(§3) The inhibition ratio (I%) was calculated as (B0-B)/B0 × 100%. IC50 is the concentration of the carbofuran at an I% of 50%, and the limit of detection (LOD) was determined as the concentration showing 10% of inhibition.
(§4) Then, the reactivity of the supernatant of the six cell lines to 50 ng/mL carbofuran, benfuracarb and carbosulfan was assessed by ELISA, and the results are shown in Table 1. […] Because 13C8 had the highest reactivity with carbofuran, benfuracarb and carbosulfan among the six cell lines, it was injected into mice for ascites production, and the mAbs were purified by a protein A column for further experiments.

In another assay the test system is mAb 12H5. Kind of assay: ELISA reactivity of hybridoma supernatant, cell line 12H5. Format: binding, BALB/c mice. The conditions noted are these: cell line 12H5 supernatant, 50 ng/mL pesticide. Here is the method:
as §1, §2, §3, §4

Assay [1] relates to specific antibody against carbofuran. The conditions noted are these: double-label time-resolved fluorescent strip; cited from earlier work.
Assay [2] has the same test system. The conditions noted are these: cited from earlier work.
For assay [3], the system named is mAb 13C8. Kind of assay: ELISA reactivity of hybridoma supernatant, cell line 13C8. The conditions noted are these: cell line 13C8 supernatant, 50 ng/mL pesticide. It is filed as binding, BALB/c mice. Here is the method:
as §1, §2, §3, §4

The subject of assay [4] is mAb with the immunogen 3-succinyl-carbofuran-KLH. The following applies: cited from earlier work.
For a further assay, the system named is mAb 18G3. Kind of assay: ELISA reactivity of hybridoma supernatant, cell line 18G3. It is filed as binding, BALB/c mice. The following applies: cell line 18G3 supernatant, 50 ng/mL pesticide. The procedure:
as §1, §2, §3, §4

For assay [5], the system named is mAb 13C8. Nature of the assay: colloidal gold-based LFIA with mAb 13C8. Format: binding, BALB/c mice. The procedure: Ten milliliters of colloidal gold solution was adjusted to pH 8.0 with K2CO3 (0.1 M) at room temperature, and then 60 μg of the antibody was added. After mixing for 30 min at room temperature, 200 μL of 20% (w/v) BSA was added to block the free colloidal gold for 20 min at room temperature. Then, the mixture was centrifuged at 15,777× g for 30 min at 4 °C. Finally, the precipitate was resuspended in 2000 μL of PBS (0.005 M at pH 8.2, containing 10% BSA, 2% glucose, 0.5% alanine, 5% PEG2000 and 0.1% NaN3, w/v) and stored at 4 °C.
An immunochromatographic test strip consisted of a sample pad, a conjugate pad, a nitrocellulose (NC) membrane and an absorbent pad. The mAb–colloidal gold conjugates (700 μL) were sprayed onto the conjugate pad (6 mm × 300 mm) and then dried under vacuum for 20 h at room temperature. DDB-OVA (50 μg/mL) or MDA-OVA (30 μg/mL) and goat anti-mouse IgG antibodies were dispensed on the NC membrane at a rate of 1 μL/cm as the test line (T line) and control line (C line), respectively. The NC membrane was then dried at 37 °C for 3 h. The sample pads, conjugate pads, NC membranes and absorbent pads were attached to the PVC plastic support, and then the assembled plate was cut to obtain 4 mm test strips and placed in a rigid plastic cassette.
We also dispensed DDB-OVA (50 μg/mL) and MDA-OVA (30 μg/mL) onto the NC membrane and labeled antibody 13C8 with colloidal gold to prepare colloidal gold LFIA test strips.

For assay [6], the system named is mAb with the immunogen BFNB-BSA. The conditions noted are these: heterologous coating antigen BFNH-OVA; cited from earlier work.
Assay [7] deals with sol–gel-entrapped antibody. The conditions noted are these: label-free electrochemical immunosensor; cited from earlier work.

Values after ≈ are worked out from the molar mass of the structure shown.

Regarding `CNC(=O)Oc1cccc2c1OC(C)(C)C2` [carbofuran], the “Reactivity of mAb (I%)” value was 76% in the assay with mAb 7F9, 78% in the assay on mAb 12H5, 95% with mAb 13C8 [3] and 86% with mAb 18G3. In addition, the detection limit in assay [1] was 0.76 ng/mL; in assay [7], 0.33 ng/mL. Moreover, the “IC50 (direct competitive ELISA)” value in [2] is 1.3 ng/mL (≈ 5.88 nM). The “CR(%) (ic-ELISA)” value in [4] was 100.0%. Further, the “IC50 (ic-ELISA)” value in [4] is 0.76 ± 0.07 ng/mL (≈ 3.43 nM); in assay [6] it was 0.66 ng/mL (≈ 2.98 nM). Further, the “cut-off (colloidal gold LFIA)” value in the assay with mAb 13C8 [5] (heterologous coating antigen MDA-OVA (30 μg/mL)) was 3 ng/mL. The “change of T line versus 0 ng/mL” value in the assay on mAb 13C8 [5] (heterologous coating antigen MDA-OVA, 1 ng/mL carbofuran) is “significantly lighter”; in the assay on mAb 13C8 [5] (homologous coating antigen DDB-OVA, 1000 ng/mL carbofuran) it was “almost no change”.
